Assay results from US20050054103A1, “Expansion of renewable stem cell populations using modulators of PI 3-kinase” (priority 2003, published 2005).

Legend:
primary hepatocytes = assay: Primary hepatocyte cultures with RAR antagonist (AFP/albumin immunostaining, Giemsa); format: cell-based, mice; details: for α-fetoprotein (AFP) expression vs control: three week old primary cultures, no cytokines
Experimental: Three intact livers were harvested from 3 week old VLVC female mice (Harlan Laboratories, Jerusalem, Israel), dissected and washed twice with DMEM (Beit Haemek, Israel), incubated with DMEM in the presence 0.05% collagenase for 30 minutes at 37° C., ground and passed through a 200 μm mesh sieve, yielding individual hepatocytes. Cells were washed twice and viability was ascertained with trypan blue. Cells were plated in collagen-coated, 35 mm tissue culture plates at a density of 4-×10^4 live cells/ml in F12 media (containing 15 mM Hepes, 0.1% glucose, 10 mM sodium bicarbonate, 100 units/ml penicillin-streptomycin, glutamine, 0.5 units/ml insulin, 7.5 m cg/ml hydrocortisone, and 10% fetal bovine serum). Medium was changed after 12 hours, the cells were washed twice with phosphate buffered saline (PBS) and new medium was added. Medium was changed twice a week.
Hepatocytes were also grown in the presence of Epidermal Growth Factor (EGF), Platelet-Derived Growth Factor β chain (PDGF-BB), Fibroblast growth Factors (FGF-4) and Hepatocyte Growth Factor (HGF), at 20-50 ng/ml each, for the entire culturing period according to the method of Schwartz et al. (Schwartz R E, Reyes M, Koodie L, Jiang Y, Blackstad M, Lund T, Lenvik T, Johnson S, Hu W S, Verfaillie C M. Multipotent adult progenitor cells from bone marrow differentiate into functional hepatocyte-like cells. J Clin Invest. 2002; 109 (10): 1291-302). Hepatocytes were also grown in serum free medium according to the method of Runge et al. (Runge D, Runge D M, Jager D, Lubecki K A, Beer Stolz D, Karathanasis S, Kietzmann T, Strom S C, Jungermann K, Fleig W E, Michalopoulos G K. Serum-free, long-term cultures of human hepatocytes: maintenance of cell morphology, transcription factors, and liver-specific functions. Biochem Biophys Res Commun. 2000; 269(1): 46-53).
In all of the above-mentioned hepatocytes culture conditions, cells are grown in the presence or absence of the retinoic acid antagonist AGN 194310 at concentrations ranging from 10^−5 M to 10^−9 M.
After a period of 3 weeks, cultures treated with 10^−5 M antagonist were detached with 0.25% trypsin, split and replated at a 1:2 ratio. The cells were either immunostained as described below, or visualized with Giemsa staining.
Murine hepatocyte cultures supplemented with EGF and HGF were evaluated as primary cultures, or following first and second passages. First passage cultures were grown for 2 weeks, split 1:2 and immunostained 8 days later for the presence of albumin, as described below. Second passage cultures were similarly grown for 2 weeks, split 1:2, and grown for an additional week, then split 1:4 and similarly immunostained 4 days later. […]

mononuclear cells = assay: RAR antagonist treatment of mononuclear cell fraction cultures; format: cell-based, human; details: Cytokines + RAR antagonist 10^−6 M; for % CD34/Lin^−: reselected CD34+ fraction
Experimental: Human blood cells were obtained from umbilical cord blood from female patients following full-term, normal delivery (informed consent was obtained). Samples were collected and processed within 12 hours postpartum. Blood was mixed with 3% Gelatin (Sigma, St. Louis, Mo.), sedimented for 30 minutes to remove most red blood cells. The leukocyte-rich fraction was harvested and layered on a Ficoll-Hypaque gradient (1.077 gram/ml; Sigma), and centrifuged at 400 g for 30 minutes. The mononuclear cell fraction in the interface layer was collected, washed three times and resuspended in phosphate-buffered saline (PBS) solution (Biological Industries) containing 0.5% bovine serum albumin (BSA, Fraction V; Sigma).
Alternatively, whole mononuclear fraction cells (MNC) were isolated, cultured and supplemented with cytokines, as above.
CD34^+ purified and whole MNC cultures were prepared and maintained as described above. AGN 194310 RAR antagonist was added to test cultures at concentrations ranging from […] [or 410 μg/l to 4.1×10^−5 μg/l]. The antagonist was added for a predetermined, limited period, for up to three weeks or continuously during the entire culture period.
CD34 surface expression on short and long-term cultures initiated either with purified CD34^+ cells or the entire MNC fraction was determined as follows: CD34^+ cells were positively reselected (Miltenyi kit) and counted. Purity was confirmed by subsequent FACS and cell morphology analysis.
Reselected CD34^+ cell subsets were stained for the following combination of antigens: CD34PE/CD38FITC and CD34PE/38, 33, 14, 15, 3, 4, 61, 19 (Lin) FITC. The fraction positive for CD34 and negative for CD38 was defined as CD34^+CD38^−. The fraction positive for CD34 and negative for LIN was defined as CD34^+Lin^− cell fraction.

[1] = test system: Normal human erythroid cells; assay: Human erythroid two-phase liquid culture; format: cell-based; details: TEPA 10 μM in second phase, after 14 days
Experimental: Peripheral blood mononuclear cells, obtained from an adult normal donor, were cultured in the erythroid two-phase liquid culture system (23-25). The second phase of the culture was supplemented either without or with 10 μM of TEPA. Cultures were analyze for total cells and hemoglobin-containing [benzidine positive (B^+)] cells after 14 days.
Human erythroid cell cultures: Normal human erythroid cells were grown according to the two-phase liquid culture procedure, essentially as described in references 67-70. In the first phase, peripheral blood mononuclear cells were incubated in the presence of early growth factors for 5-7 days. In the second phase, these factors were replaced by the erythroid specific proliferation/differentiation factor, erythropoietin.
The cultures were supplemented with TEPA at the initiation of the second phase. The total cell number and the percentage of hemoglobin-containing cells were determined after 14 days.

Structure (SMILES)	oval cell population (giemsa) (primary hepatocytes; 10^−5 M, primary cultures)	α-fetoprotein (AFP) expression vs control (primary hepatocytes; 10^−5 M)	α-fetoprotein (AFP) expression vs control (primary hepatocytes; 10^−5 M, listed as retinoic acid antagonist)	numbers of hepatocytes vs controls (primary hepatocytes; second passage, EGF + HGF, 10^−5 M to 10^−7 M)	No of CD34^+/Lin^− × 10^4 (cumulative value) (mononuclear cells; 2 weeks)	No of CD34 cells × 10^4 (cumulative value) (mononuclear cells; 2 weeks)	% CD34/Lin^− (mononuclear cells; 2 weeks) [%]	No of CD34^+/Lin^− × 10^4 (cumulative value) (mononuclear cells; 5 weeks)	No of CD34 cells × 10^4 (cumulative value) (mononuclear cells; 5 weeks)	% CD34/Lin^− (mononuclear cells; 5 weeks) [%]	hemoglobin-containing cells [1]	total number of cells [1]
CCc1ccc(C2=CC(C)(C)Sc3ccc(C#Cc4ccc(C(=O)O)cc4)cc32)cc1 [AGN 194310]	marked increase in oval cell population	marked increase in AFP expression	increase in the fraction of cells that stained positively for α-fetoprotein	Significantly greater numbers of hepatocytes	132.5 × 10^4	169 × 10^4	78	237.8 × 10^4	985 × 10^4	24	–	–
NCCNCCNCCNCCN [TEPA, tetraethylenepentamine]	–	–	–	–	–	–	–	–	–	–	sharp decrease	decreased only slightly
